Results: patent EP4744665A1, “COMBINATION OF POLQ INHIBITOR COMPOUND AND ANTI-CANCER THERAPEUTIC AGENT OR RADIOTHERAPY” (Simcere Zaiming Pharmaceutical Co., Ltd., priority 2023, dated 2025)

Legend:
[1] = target: T1, N-terminal active peptide segment of POLQ with ATPase activity (M1-N899) (Homo sapiens, UniProt O75417); assay: POLQ enzyme activity inhibition experiment (ATPase, NADH oxidation-coupled, OD 340 nm); type: biochemical
T1 construct: N-terminal active peptide segment of POLQ with ATPase activity (M1-N899)
T1 sequence (O75417 1-899): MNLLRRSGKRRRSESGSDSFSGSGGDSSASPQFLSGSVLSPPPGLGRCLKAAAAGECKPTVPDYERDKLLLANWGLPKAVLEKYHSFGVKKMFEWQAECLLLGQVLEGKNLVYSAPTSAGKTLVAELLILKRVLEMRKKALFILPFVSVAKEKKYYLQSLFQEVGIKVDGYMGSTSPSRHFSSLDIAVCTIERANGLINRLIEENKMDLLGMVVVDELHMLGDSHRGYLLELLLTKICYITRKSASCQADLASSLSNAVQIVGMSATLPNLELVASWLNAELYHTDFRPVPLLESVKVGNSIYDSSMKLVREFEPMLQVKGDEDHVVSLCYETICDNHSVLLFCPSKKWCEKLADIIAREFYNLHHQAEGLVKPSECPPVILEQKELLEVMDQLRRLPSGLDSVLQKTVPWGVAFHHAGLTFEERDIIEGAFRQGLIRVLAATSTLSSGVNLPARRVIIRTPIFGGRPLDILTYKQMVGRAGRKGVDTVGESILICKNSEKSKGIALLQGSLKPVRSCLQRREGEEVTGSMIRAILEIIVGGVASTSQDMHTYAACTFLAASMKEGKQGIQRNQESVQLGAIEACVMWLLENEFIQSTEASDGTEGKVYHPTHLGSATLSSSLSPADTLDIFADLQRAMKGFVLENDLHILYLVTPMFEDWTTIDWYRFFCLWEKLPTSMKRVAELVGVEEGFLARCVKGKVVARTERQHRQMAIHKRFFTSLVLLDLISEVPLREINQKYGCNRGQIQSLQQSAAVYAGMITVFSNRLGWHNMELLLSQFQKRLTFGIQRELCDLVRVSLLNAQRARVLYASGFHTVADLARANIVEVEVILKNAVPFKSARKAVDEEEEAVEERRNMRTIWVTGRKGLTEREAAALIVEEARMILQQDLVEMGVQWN
Description: Brief introduction to experimental principle: After the N-terminal active peptide segment of POLQ with ATPase activity (M1-N899) is co-incubated with the compound, this peptide segment reacts with substrate dT50 under the action of ATP to generate ADP. The generated ADP then participates in the subsequent NADH oxidation-coupled enzymatic reaction, catalyzing the conversion of NADH to NAD^+. The reduction in the OD value of NADH at 340 nm was measured using the Envision microplate reader from Perkin Elmer to reflect enzyme activity. Experimental instruments: Labcyte Echo 650 pipetting system; Perkin Elmer Envision microplate reader; Eppendorf 5810R centrifuge; Boxun BSD-YX3400 thermostatic shaker.
Experimental methods: The POLQ enzyme was diluted to 100 nM with a reaction buffer (20 mM Tris HCl (pH 7.80), 80 mM KCl, 10 mM MgCl2, 1 mM DTT, 0.01% w/v bovine serum albumin, 0.01% v/v Tween-20, 5% v/v glycerol). The test compound was diluted to different concentrations with dimethyl sulfoxide (DMSO) using an Echo 650 pipetting system and transferred to a 384-well plate, 20 µL/well of 100 nM POLQ was added, and the mixture was incubated at room temperature for 15 min. A reaction mixture solution was prepared with the concentrations of each component in the reaction mixture solution as follows: 100 µM ATP, 300 nM dT50, 300 µM NADH, 6 mM PEP, 10 U/mL lactate dehydrogenase, and 20 U/mL pyruvate kinase. 20 µL/well of the reaction mixture solution was added to start the enzyme reaction. In the reaction system, the compound was serially diluted 3-fold from the final concentration of 10 µM, covering a concentration range from 10 µM to 0.0005 µM, and the final concentration of DMSO in the system was 0.2% v/v. After the 384-well plate was reacted at room temperature for 20 min, the OD value at 340 nm was read using an Envision microplate reader.
(§1) Inhibition rates were calculated and fitted using XLfit software to give the IC50 of the compound.
A blank group and a DMSO group were set in the experiment. […]

[2] = tested on: DLD-1 parent cells; assay: Inhibition of tumor cell proliferation, 7 days, CTG; type: cell-based; details: Homo sapiens, DLD-1, 168 h, 7 days incubation
Description: (§2) Brief introduction to experimental principle: After the compound was co-incubated with tumor cells for 7 days, the ATP in viable cells was quantified using the CTG kit from Promega to reflect the effect of the compound on tumor cell proliferation.
(§3) Experimental methods: DLD-1 parent cells or DLD-1 BRCA2 (-/-) cells were diluted with an RPMI 1640 medium containing 10% FBS and then added to a 96-well plate (90 µL/well), with the number of cells being 600/well or 1200/well, respectively, and incubated overnight in an incubator at 37 °C with 5% CO2. The test compound was diluted to different concentrations with dimethyl sulfoxide (DMSO) and then added to a 96-well plate, such that, in the reaction system, the compound was serially diluted 4-fold from the final concentration of 25 µM. The concentration range of the compound was from 25 µM to 0.0004 µM, and the final concentration of DMSO was 0.25% v/v. After incubation for 7 days, 50 µL/well of CTG was added, and the mixture was incubated at room temperature for 10 min. The luminescence (Lum) signal value was read using an Envision microplate reader, and the inhibition rate and half inhibitory concentration (IC50) were calculated.
as §1
(§4) A Blank well and a DMSO well were set in the experiment. The blank well contained 100 µL of an RPMI Medium 1640 medium containing 10% FBS, and the inhibition rate of the compound on tumor cell growth was considered to be 100% under this condition. For the DMSO well, 0.25% v/v DMSO was added to the cell-containing well, and the inhibition rate of the compound on tumor cell growth was considered to be 0 under this condition. Inhibition rate = 100 × (Lummax−Lumcompound)/(Lummax−Lummin)% [formula] wherein Lummax refers to the luminescence signal value of the well containing cells and 0.25% v/v DMSO, and Lumcompound refers to the luminescence signal value of the well containing the compound and cells. Lummin refers to the luminescence signal value of the well containing the medium and 0.25% v/v DMSO.

[3] = tested on: DLD-1 BRCA2 (-/-) cell line; assay: as above; type: cell-based; details: Homo sapiens, DLD-1, 168 h, 7 days incubation
Description: as §2, §3, §1, §4

[4] = tested on: MDA-MB-436; assay: Combined use with combination drug, matrix study, Bliss Independence model (Cell Titer Glo, 7 days); type: cell-based; details: combination with Niraparib (PARP inhibitor)
Description: (§5) DLD-1 colorectal adenocarcinoma cells, DLD-1 BRCA2 (-/-) colorectal adenocarcinoma cells, SHP-77 human small cell lung cancer cells, NCI-H82 human small cell lung cancer cells, LNCAP prostate cancer cells, KURAMOCHI human ovarian cancer cells, A2780 human ovarian cancer cells, and NCI-H23 non-small cell lung cancer cells were cultured in a 1640 medium containing 10% fetal bovine serum. SKOV3 human ovarian cancer cells were cultured in a McCoy's 5A (modified) medium containing 10% fetal bovine serum. OVCAR3 ovarian cancer cells were cultured in a 1640 medium containing 20% fetal bovine serum and 10 µg/mL bovine insulin. MDA-MB-436 breast cancer cells (natural BRCA1 mutation) and A549 non-small cell lung cancer cells were cultured in a DMEM medium containing 10% fetal bovine serum. Capan-1 human pancreatic cancer cells (natural BRCA2 mutation) were cultured in an IMDM medium containing 20% fetal bovine serum. The cells were all cultured at 37 °C with 5% CO2. Cells at the logarithmic growth phase were available for the experiment.
(§6) 100 µL of the cell medium was added to rows A and H and columns 1 and 12 of a 96-well cell culture plate. Cultured cells were resuspended (adherent cells were digested with trypsin) and counted to give information on cell density and viability. The dilution ratio of the resuspended cells required for inoculating a fixed number of cells into 80 µL of the medium in each culture well was calculated based on the cell density information. After the resuspended cells were diluted with the corresponding medium, 80 µL of the diluted cells were transferred to columns 2-11 of rows B-G of a 96-well cell culture plate using an Eppendorf multi-channel pipette (60 wells in total for each plate). The cell culture plate was incubated overnight in an incubator at 37 °C with 5% CO2.
(§7) The test compound and the combination compound were dissolved in DMSO to give a 10 mM solution for later use. In the experiment, the compound was further diluted to the corresponding concentration according to the concentration designed in the experiment, and based on this concentration, serial gradient dilution was performed. Matrix study was performed at 8 or 7 dose concentrations of the test compound (the lowest dose concentration was 0, and other specific concentration values were shown in FIG. 1) and 7 or 8 dose concentrations of the combination compound (the lowest dose concentration was 0, and other specific concentration values were shown in FIG. 1). 10 µL of each of the diluted combination compound and test compound was added to the corresponding cell plate well, such that the final concentration of DMSO was 0.25%. The test compound and the cells were incubated in an incubator at 37 °C with 5% CO2 for another 7 days, Cell Titer Glo was added at 50 µL/well, and the luminescence value of each well was read using an Envision microplate reader.
(§8) The luminescence value of the well containing only the cell medium was taken as the background (RLUbackground, corresponding cell survival rate to be 0%), the cell well containing only 0.25% DMSO without the compound was taken as the maximum signal (RLUDMSO, corresponding cell survival rate to be 100%), and the luminescence values of the remaining wells containing cells and compounds at different concentrations were taken as RLUsample. The survival rate of each cell well was calculated as follows: Survival rate (%) = (RLUsample−RLUbackground)/(RLUDMSO−RLUbackground) × 100% [formula]
(§9) The interaction between drugs (synergistic, independent, or antagonistic) was statistically analyzed by the Bliss Independence model using Combenefit software (Bliss, C.I., Bacteriol. Rev., 1956, 20, 243-258). The model assumes that each drug acts independently. The theoretical expected action curve of the combination was calculated from the following equation: Bliss effect = effect A + effect B−effect A × effect B [formula] wherein effect A and effect B are the effects of drugs A and B alone at specific concentrations. […]

[5] = tested on: DLD-1 BRCA2 (-/-); assay: as above; type: cell-based; details: combination with Olaparib (PARP inhibitor)
Description: as §5, §6, §7, §8, §9

IC50 [1] [nM] | IC50 [3] [nM] | Compound | IC50 [2] [nM] | Combined effect [4] | Combined effect [5]
< 100 | < 200 | COc1cnc(C)cc1-c1cc(C)ncc1C(=O)Nc1nc2ncc(-c3ccc(C#N)cc3)nc2s1 [Compound II, N-(6-(4-Cyanophenyl)thiazolo[4,5-b]pyrazin-2-yl)-5'-methoxy-2',6-dimethyl-[4,4'-bipyridinyl]-3-carboxamide] | ≥ 10000 | Synergistic | Synergistic
< 100 | < 200 | COc1ccc(Cl)cc1-c1cc(C)ncc1C(=O)Nc1nc2ncc(-c3ccc(C4CC4)cn3)nc2s1 [Compound III, 4-(5-Chloro-2-methoxyphenyl)-N-[6-(5-cyclopropylpyridin-2-yl)thiazolo[4,5-b]pyrazin-2-yl]-6-methylpyridine-3-carboxamide] | – | – | Synergistic

Compound | IC50 [1] [nM] | IC50 [3] [nM] | IC50 [2] [nM] | Combined effect [4] | Combined effect [5]
COc1ccc(Cl)cc1-c1cc(C)ncc1C(=O)Nc1nc2ncc(-c3ccc(C#N)cc3)nc2s1 [Compound I, 4-(5-Chloro-2-methoxyphenyl)-N-[6-(4-cyanophenyl)thiazolo[4,5-b]pyrazin-2-yl]-6-methylnicotinamide] | < 100 | < 200 | ≥ 10000 | Synergistic | Synergistic
